Reference: patent publication US10703748B2, “Diazanaphthalen-3-yl carboxamides and preparation and use thereof” (Samumed, LLC, priority 2017, dated 2020)

Legend:
[1] = system: SW480 colon carcinoma cells; assay: Cell viability assay (CellTiter-Glo); conditions: Homo sapiens; for EC50: SW480, 96 h; for inhibition at 10 µM: SW480, read-out: percent inhibition at 10 μM
Protocol: Representative compounds were screened using the assay procedure to assess the effect on cell viability as described below.
SW480 colon carcinoma cells were transduced with a lentiviral vector expressing luciferase with a human Sp5 promoter consisting of a sequence of eight TCF/LEF binding sites. […] These stably transduced SW480 cells were expanded in cell culture and used for all further screening activities. Each compound was dissolved in DMSO as a 10 mM stock and used to prepare compound source plates.
For the Cell Viability Assays, the cells were plated at 2,000 cells/well in 384-well plates with a DMEM medium containing 1% fetal bovine serum, and 1% Penicillin-Streptomycin and incubated for four days hours at 37° C. and 5% CO2. Eight replicates of DMSO-treated cells served as controls and cells treated with compound were performed in duplicate.
After incubation, 10 μL of CellTiter-Glo (Promega) was added to each well allowed to incubate for approximately 12 minutes. This reagent “results in cell lysis and generation of a luminescent signal proportional to the amount of ATP present. The amount of ATP is directly proportional to the number of cells present in culture, in agreement with previous reports. The CellTiter-Glo Assay generates a “glow-type” luminescent signal, produced by the luciferase reaction (Promega.com)”.
Dose-response curves were generated and EC50 concentration values were calculated using non-linear regression curve fit in the GraphPad Prism (San Diego, Calif.) or Dotmatics' Studies Software (Bishops Stortford, UK).

[2] = system: Wnt-responsive Sp5-Luc reporter in SW480 colon carcinoma cells; assay: Screening assay for Wnt activity (Sp5-Luc reporter gene assay); conditions: Homo sapiens; for EC50: SW480; for inhibition at 10 µM: SW480, read-out: percent inhibition at 10 μM
IL-6 = IL-6 inhibition in LPS-stimulated human peripheral blood mononuclear cells (HTRF); conditions: Homo sapiens, PBMC; for EC50: 22 h; for inhibition at 10 µM: read-out: percentage in parentheses after EC50 >10
[3] = system: α-smooth muscle actin (aSMA) positive LL29 cells; assay: Inhibition of the fibrotic process: αSMA staining in TGF-β1 treated LL29 fibroblasts from IPF patients; conditions: Homo sapiens, Fibroblast; for EC50: 96 h; for inhibition at 10 µM: read-out: percentage in parentheses after EC50 >10
Protocol: Each compound was dissolved in DMSO as a 10 mM stock and used to prepare compound source plates. […] LL29 cells were plated at 1,500 cells/well in 70 μL/well F12 medium supplemented with 1% Fetal Bovine Serum. […] Wells treated with TGF-β1 and containing DMSO were used as positive control, and cells with only DMSO were negative control. Cells were incubated at 37° C. and 5% CO2 for 4 days. Following incubation for 4 days, SYTOX green nucleic acid stain (Life Technologies [Thermo Fisher Scientific]) was added to the wells at a final concentration of 1 μM and incubated at room temperature for 30 min. Cells were then fixed using 4% formaldehyde (Electron Microscopy Sciences), washed 3 times with PBS followed by blocking and permeabilization using 3% Bovine Serum Albumin (BSA; Sigma) and 0.3% Triton X-100 (Sigma) in PBS.

GSK3β kinase = GSK3β kinase (Homo sapiens, UniProt P49841); assay: GSK3β kinase activity (Ser/Thr 09 peptide Z-lyte FRET assay); assay type: biochemical; conditions: recombinant kinase, 46 μM ATP, one hour at room temperature; read-out: EC50
DYRK1A kinase = DYRK1A kinase (Homo sapiens, UniProt Q13627); assay: DYRK1A kinase activity (Ser/Thr 18 peptide Z-lyte FRET assay); assay type: biochemical; conditions: recombinant DYRK1A, 30 μM ATP, one hour at room temperature;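 note: kinase activity read as coumarin/fluorescein emission ratio after development step, with unphosphorylated and phosphorylated peptide forms setting 0% and 100% controls, values from dose-response curves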
[4] = system: Tau phosphorylation at Threonine 212 (pT212Tau); assay: Tau phosphorylation at Threonine 212 (pT212Tau) in Dyrk1a- and MAPT-overexpressing HEK293T cells, sandwich ELISA; assay type: cell-based; conditions: Homo sapiens, HEK-293T, overnight (16-18 hours), read-out: Thr212 EC50
Protocol: HEK293T cells (transfectable human embryonic kidney cells) were cultured in DMEM medium supplemented with 10% FBS and 1% penicillin/streptomycin.
HEK293T cells were transiently transfected to overexpress Dyrk1a and microtubule-associated protein Tau (MAPT) genes. Specifically, Dyrk1a and MAPT expression vectors were obtained from OriGene (10 μg of each, catalog numbers SC314641 and RC216166, respectively). A MaxiPrep for each vector was ordered and received from GeneWiz, yielding 874.5 μg (resuspended at […]) of the Dyrk1a expression vector, and 898 μg (resuspended at […]) of MAPT.
HEK293T cells were seeded at 1.0×10^7 cells in 10 mL per T-75 flask. […] One T-75 flask was designated as a no-vector negative control for pT212Tau signal.
After 4-6 hours of incubation in transfection reagents, transiently double transfected HEK293T cells were dissociated by treatment with trypsin EDTA and seeded at 1.0×10^5 cells in 100 μL per well in 96-well plates. No-vector negative controls were seeded in separate 96-well plates to avoid the risk of the negative control cells picking up the overexpression during incubation. At the time of seeding, DMSO-resuspended Samumed compounds were dispensed to eight wells as a serial dilution from 10 μM to 4.6 nM final concentration in medium, or at 0.12 μM to 0.05 nM with particularly potent compounds. Cells were exposed to the representative compounds overnight (16-18 hours) in a 37° C. incubator.
96-Well flat-bottom plates were coated with 100 μL per well anti-HT7 capture antibody (ThermoFisher, MN1000) diluted 1:300 in 1×PBS at 4° C. overnight, with shaking at 500 rpm. After overnight capture antibody incubation, coated plates were washed four times with 200 μL per well of 1×PBS-0.05% Tween-20, and blocked for 1 hour with 200 μL per well of 1×PBS with 2% BSA. After 1 hour of blocking, plates were washed four times with 200 μL per well of 1×PBS-0.05% Tween-20, prior to sample loading.
Wells of compound-treated cells were visually checked for cell death before being washed with 200 μL per well of 1×DPBS supplemented with phosphatase inhibitor diluted to 1×. Cells were then lysed with 100 μL 1×RIPA buffer supplemented with phosphatase and protease inhibitors (each diluted to a final 1×). Cells were shaken at 500 rpm, 4° C. for 20 minutes prior to further lysis (via manual scraping) and transfer to 96-well V-bottom collection plates (Corning, 3894). V-bottom plates were centrifuged at 4000 rpm, 4° C., for 15 minutes, and 100 μL of lysate supernatant from each well was directly tested for pT212Tau signal by sandwich ELISA.
Specifically, lysates were directly transferred to the coated and blocked ELISA plates for 2 hours before plates were washed four times with 200 μL per well of 1×PBS-0.05% Tween-20 and probed with 100 μL per well of anti-pT212Tau antibody (ThermoFisher, 44-740G) diluted 1:200 in 1×PBS for 2 hours. Plates were washed four times with 200 μL per well of 1×PBS-0.05% Tween-20 and probed with 100 μL per well of anti-rabbit/HRP conjugate (Cell Signaling Technology, 7074S) diluted 1:600 in 1×PBS for 1 hour. Plates were washed four times with 200 μL per well of 1×PBS-0.05% Tween-20 before 100 μL per well of TMB substrate solution (ThermoFisher, N301) was added. When colour development was observed, 100 μL per well of stop solution (ThermoFisher, N600) was added, and colorimetric detection of pT212Tau signal was read at 450 nm with the Cytation 3 Cell Imaging Multi-Mode Reader (BioTek). The signal was used to plot, draw the curves fitting, and determine the EC50 values in GraphPad Prism for tested representative compounds.

[5] = system: Tau phosphorylation at Ser396 (pSer396); assay: Tau phosphorylation at Ser396 (pSer396) in SH-SY5Y cells, ELISA / western blot; assay type: cell-based, human; conditions: Homo sapiens; SH-SY5Y cells, overnight (16-18 h); read-out: pSer396 Tau EC50;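 note: decrease in pSer396 Tau measured in lysates of treated cells by colorimetric ELISA or chemiluminescent western blot, same pSer396 antibody for both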
Protocol: Two days before treatment, cells were seeded onto 96 well plates at 5×10^4 cells/well.
The above synthesized compounds were screened using the cell assay procedure to assess decrease Tau phosphorylation at Ser396 (pSer396) described below.
Cells were lysed with RIPA buffer complemented with phosphatase and protease inhibitors then lysates were spun down at 12,000 g for 10 min to remove any cellular debris.

[6] = system: secreted cytokines TNFα, IL-6 and KC-GRO; assay: Secreted cytokines in Lipopolysaccharide-stimulated BV-2 cells (Table 9 does not say which cytokine); assay type: cell-based, mouse; conditions: Mus musculus, BV-2, 5 h; read-out: EC50
Protocol: BV-2 cells (mouse microglial cells) were cultured in 1:1 DMEM medium supplemented with 10% FBS, and 1% penicillin/streptomycin.
BV-2 cells are plated at 35,000 cells/well in a volume of 100 μl for at least 4 hours before compounds are added. […] Compounds were added to cells overnight. […] Supernatant is removed and saved for further cytokine detection. The original plates with seeded cells were tested for cytotoxicity by measure of adenosine triphosphate (ATP) release by adding CellTiter-Glo® diluted 1:4 in distilled water (G7573, Promega) and transferring lysed cells to a completely black 96-well plate to be read with the Cytation3. Supernatant was then diluted 1:2 with a diluent from V-PLEX cytokine Kit and directly tested for the secreted cytokines TNFα, IL-6 and KC-GRO using electrochemiluminescence (Meso Scale Discovery). The standard curve for each cytokine was used to convert the electrochemiluminescent signal into pg of protein per mL.

GSK3β kinase, sequence (P49841 whole entry): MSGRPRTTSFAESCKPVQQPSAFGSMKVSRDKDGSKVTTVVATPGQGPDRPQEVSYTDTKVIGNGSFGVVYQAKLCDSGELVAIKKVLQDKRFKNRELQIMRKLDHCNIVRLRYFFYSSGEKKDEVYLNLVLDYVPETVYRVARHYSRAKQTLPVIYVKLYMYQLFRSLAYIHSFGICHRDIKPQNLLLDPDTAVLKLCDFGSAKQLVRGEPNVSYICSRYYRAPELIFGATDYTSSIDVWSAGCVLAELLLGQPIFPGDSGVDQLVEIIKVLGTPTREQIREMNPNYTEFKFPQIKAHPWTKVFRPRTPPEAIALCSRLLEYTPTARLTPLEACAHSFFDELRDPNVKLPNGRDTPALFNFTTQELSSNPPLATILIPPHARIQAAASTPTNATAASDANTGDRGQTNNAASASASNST

Row | Structure (SMILES) | EC50 [1] [nM] | EC50 [2] [nM] | EC50 (IL-6) [nM] | inhibition at 10 µM (IL-6) [%] | EC50 [3] [nM] | inhibition at 10 µM [3] [%] | EC50 (GSK3β kinase) [nM] | EC50 (DYRK1A kinase) [nM] | EC50 [4] [nM] | EC50 [5] [nM] | inhibition at 10 µM [1] [%] | inhibition at 10 µM [2] [%] | EC50 [6] [nM]
1 | Cn1cc(-c2cnc3cnc(NC(=O)c4ccnc(N5CCNCC5)c4)cc3c2)cn1 [Compound 2866, N-(3-(1-Methyl-1H-pyrazol-4-yl)-1,7-naphthyridin-6-yl)-2-(piperazin-1-yl) isonicotinamide] | 2480 | 2200 | > 10000 | 0 | > 10000 | 47.4 | > 10000 | 41 | 1600 | > 10000 |  |  | 
2 | Cn1cc(-c2ccc3nnc(NC(=O)C4CC4)cc3c2)cn1 [Compound 1815, N-(6-(1-Methyl-1H-pyrazol-4-yl)cinnolin-3-yl)cyclopropanecarboxamide] | > 10000 | > 10000 | > 10000 | 7 | > 10000 | 33.5 | > 10000 | > 10000 | > 10000 | > 10000 | 15.8 | 12.9 | 
3 | Cn1cc(-c2cc3cc(NC(=O)C4CCN(Cc5ncccn5)CC4)ncc3cn2)cn1 [Compound 3727, N-(6-(1-Methyl-1H-pyrazol-4-yl)-2,7-naphthyridin-3-yl)-1-(pyrimidin-2-ylmethyl)piperidine-4-carboxamide] | 6660 | 426 | > 10000 | 6.2 | 149 |  | 18 | 4 | 15 | 398 |  |  | > 10000
4 | CN1CCN(c2cc(C(=O)Nc3cc4cc(-c5cn(C)nn5)cnc4cn3)ccn2)CC1 [Compound 3098, N-(3-(1-Methyl-1H-1,2,3-triazol-4-yl)-1,7-naphthyridin-6-yl)-2-(4-methylpiperazin-1-yl)isonicotinamide] | > 10000 | > 10000 | > 10000 | 4.7 | > 10000 | 8.3 | > 10000 | 96 | 2000 | > 10000 | 14.4 | 14.9 | 
5 | O=C(Nc1cc2cc(-c3cncs3)ncc2cn1)C1CCN(C2COC2)CC1 [Compound 4244, 1-(Oxetan-3-yl)-N-(6-(thiazol-5-yl)-2,7-naphthyridin-3-yl)piperidine-4-carboxamide] | > 10000 | 863 | > 10000 | 6.9 | > 10000 | 4.9 | 30 | 4 | 157 | 284 | 19.9 |  | > 10000
6 | C[C@H]1CCCN1CC(=O)Nc1cc2nc(-c3cnn(C)c3)ccc2cn1 [Compound 47, (S)—N-(2-(1-methyl-1H-pyrazol-4-yl)-1,6-naphthyridin-7-yl)-2-(2-methylpyrrolidin-1-yl)acetamide] | > 10000 | 5210 | > 10000 | 0 | 7200 |  | 200 | 36 | 668 | > 10000 | 35.2 |  | 260
7 | Cn1cc(-c2cnc3cnc(NC(=O)c4ccc(OC5CCNCC5)cc4)cc3c2)cn1 [Compound 2864, N-(3-(1-Methyl-1H-pyrazol-4-yl)-1,7-naphthyridin-6-yl)-4-(piperidin-4-yloxy)benzamide] | 4060 | > 10000 | > 10000 | 10 | > 10000 | 7.3 | > 10000 | 39 | 310 | > 10000 |  | 47.3 | 
8 | CN1CCCN(CC(=O)Nc2cc3nc(-c4cnn(C)c4)ccc3cn2)CC1 [Compound 105, 2-(4-Methyl-1,4-diazepan-1-yl)-N-(2-(1-methyl-1H-pyrazol-4-yl)-1,6-naphthyridin-7-yl)acetamide] | > 10000 | > 10000 | > 10000 | 2.6 | > 10000 | 16.9 | 541 | 71 | 263 |  | 38.9 | 45.4 | 1130
9 | Cn1cc(-c2cnc3cnc(NC(=O)c4ccnc(N5CCNCC5)c4)cc3c2)nn1 [Compound 3105, N-(3-(1-Methyl-1H-1,2,3-triazol-4-yl)-1,7-naphthyridin-6-yl)-2-(piperazin-1-yl)isonicotinamide] | 9750 | 4160 | > 10000 | 8 | > 10000 | 21.8 | > 10000 | 147 | 7800 | > 10000 |  |  | 
10 | CC(C)n1cc(C(=O)Nc2cc3nc(-c4cncc(NC5CCN(C)CC5)n4)ccc3cn2)cn1 [Compound 4565, 1-Isopropyl-N-(2-(6-((1-methylpiperidin-4-yl)amino)pyrazin-2-yl)-1,6-naphthyridin-7-yl)-1H-pyrazole-4-carboxamide] | 1550 | 1950 | > 10000 | 10.2 | > 10000 | 31 | > 10000 | 12 | 42 |  |  |  | 1000
11 | CN1CCN(c2cc(C(=O)Nc3cc4cc(-c5cnn(C)c5)cnc4cn3)ccn2)CC1 [Compound 2867, N-(3-(1-methyl-1H-pyrazol-4-yl)-1,7-naphthyridin-6-yl)-2-(4-methylpiperazin-1-yl)isonicotinamide] | 4050 | 9160 | > 10000 | 5.2 | 5380 |  | > 10000 | 36 | 46 | > 10000 |  |  | 
12 | Cc1ncc(-c2ccc3cnc(NC(=O)N4CCC(N5CCOCC5)CC4)cc3n2)o1 [Compound 566, N-(2-(2-Methyloxazol-5-yl)-1,6-naphthyridin-7-yl)-4-morpholinopiperidine-1-carboxamide] | > 10000 | > 10000 | > 10000 | 3.6 | > 10000 | 35.2 | 621 | 77 | 6600 |  | 19.7 | 33.2 | 
